Laboratory results taken from article PMC3726613, “Bacterial Cyclic AMP-Phosphodiesterase Activity Coordinates Biofilm Formation” (PLoS ONE, 2013).

Molecular target: T1, CpdS (SMA3506), CpdS-His8 (Serratia ureilytica, UniProt A0A9X9G1H8)
T1 construct: gene cpdA
Assay: bis-pNPP hydrolysis assay
Format: biochemical
Settings: read-out: 50% reduction in the activity

T1 sequence (A0A9X9G1H8 entry or part of it): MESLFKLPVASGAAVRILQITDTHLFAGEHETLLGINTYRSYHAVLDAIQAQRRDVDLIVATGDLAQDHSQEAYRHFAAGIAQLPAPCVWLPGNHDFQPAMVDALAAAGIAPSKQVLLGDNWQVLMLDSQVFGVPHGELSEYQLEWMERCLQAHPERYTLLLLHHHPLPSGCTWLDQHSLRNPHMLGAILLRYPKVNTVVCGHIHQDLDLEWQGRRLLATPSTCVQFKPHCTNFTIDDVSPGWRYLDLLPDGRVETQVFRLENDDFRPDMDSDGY

CC(C)Cn1c(=O)n(C)c(=O)c2[nH]cnc21 [IBMX]
IC50: 4.8 mM
